Reference: patent US20230117034A1, “PYRAZOLOTRIAZINES” (Bayer Aktiengesellschaft, priority 2019, published 2023)

Legend:
CDK12/CycK = CDK12/CycK (Homo sapiens, UniProt Q9NYV4); test: CDK12/CycK high ATP kinase assay (TR-FRET, 2 mM ATP); assay type: biochemical; conditions: 2 mM ATP (high ATP); median; read-out: CDK12/CyclinK, 2 mM ATP (high ATP), IC50-[mol/l] (median)
In short: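 Read-out is TR-FRET (Eu-anti-rabbit IgG, anti-phospho-c-Myc Ser62 antibody, streptavidin-XL665) after EDTA stop. Reaction ran 60 min at 22 °C using 1 µM biotin-peptide and high ATP (2 mM) with roughly 0.75 nM recombinant CDK12/CycK, after 15 min compound pre-binding; normalised emission ratios yield IC50.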

[1] = system: BRCA1 mRNA expression in CAL-120 cells; test: qRT-PCR assay: BRCA1 mRNA expression in CAL-120; assay type: cell-based; conditions: Homo sapiens; Inhibition of BRCA1 mRNA expression in CAL-120 cells; median; read-out: RTqPCR-CAL-120, IC50, BRCA1 (median)
Experimental: 3. qRT-PCR Assay: BRCA, ATR, MCL1 in MDA-MB-231, CAL-120
Tissue cultured human MDA-MB-231 human breast cancer cells were plated in 500 microL per well at 200,000 cells/well in a 24 well microtiter plate. After 24 h, the cells were exposed continuously for 24 h to test substances (substances were added with Tecan HP 0300 Dispenser). RNA was prepared using Qiagen RNeasy MiniKit (#74106), RNA was quantified using a NanoDrop Equipment, and 600 nano gamms of RNA was coverted to cDNA using a SuperScript VILO kit (Thermofisher #11755050) followed by qPCR amplification. BRCA1 and ATR gene expression was measured by RT-qPCR and normalised to GAPDH housekeeping gene expression. qPCR primer sets have been purchased from Thermo Fisher Scientific/Applied Biosystems: BRCA1, #Hs 01556193; ATR, #Hs 00992123; GAPDH, #Hs 03929097.

[2] = target: T1, CDK12 protein level in CAL-120 breast cancer cells (Homo sapiens, UniProt Q9NYV4); test: CDK12 protein level: Protein Simple (CDK12, CAL-120); assay type: cell-based; conditions: CAL-120 cells, 18 h with compound, CDK12/HSP90 peak area ratio vs vehicle, median, read-out: CDK12 protein level in CAL-120 breast ca cells, DC50-[mol/l] (median)
T1 construct: endogenous in cells; host or cells: CAL-120 human breast cancer cells (DSMZ ACC 459)
Experimental: CAL-120 human breast cancer cells (DSMZ ACC 459) were seeded at 300,000 cells/well in 6-well plates containing 2 mL of growth medium (DMEM, 10% FCS, glutamine) and incubated for 24 h at 37° C. in an humidified incubator. Test compounds were added at various concentrations, control wells received solvent (DMSO), and the plates were incubated for another 18 h at 37° C. Cells were washed 2 times with PBS and lysed in 75 microL lysis buffer (MSD-Puffer (MSD, #R60TX-2), +1% 505S+PhosSTOP (Roche #04906837001)+complete mini (Roche #04693159001)) by scraping. The lysates were pushed 2 times through Qiashedders followed by centrifugation at 14,000 rpm for 30-50 sec. The supernatant was stored at −20° C. Proteins were separated by applying 0.4 microgramms of protein lysate to Protein Simple 66-440 kDa (Protein Simple #SM-S002) size assay columns on a PEGGY SUE or SALLY SUE equipment according to the supplier's manual. CDK12 and HSP90 (loading control) were detected using anti-human CDK12 antibody (Cell Signaling Technologies (CST) #11793) at 1:25 dilution and anti-human HSP90 antibody (CST #4877) at 1:5,000 dilution. CDK12 and HSP90 peak areas were determined using Protein Simple Compass software. Ratio of CDK12/HSP90 peak areas were calculated for each sample, and […] values (degrading concentration to achieve 50% reduction relative to vehicle treated control) were determined by means of a 4 parameter fit.

Sequence of CDK12/CycK (Q9NYV4 with tags, fused parts or gaps): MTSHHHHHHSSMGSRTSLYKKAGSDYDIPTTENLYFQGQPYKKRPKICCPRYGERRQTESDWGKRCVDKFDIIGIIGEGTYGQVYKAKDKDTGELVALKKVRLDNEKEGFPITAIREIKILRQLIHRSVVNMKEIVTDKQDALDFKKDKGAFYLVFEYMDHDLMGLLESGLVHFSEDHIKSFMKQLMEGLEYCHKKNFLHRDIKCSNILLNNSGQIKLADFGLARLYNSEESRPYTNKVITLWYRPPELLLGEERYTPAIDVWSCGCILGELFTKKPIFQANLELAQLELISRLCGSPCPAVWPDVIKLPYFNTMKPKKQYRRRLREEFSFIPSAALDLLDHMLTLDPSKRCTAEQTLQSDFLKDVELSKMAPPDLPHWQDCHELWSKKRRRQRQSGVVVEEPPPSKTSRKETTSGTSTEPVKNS
Sequence of CDK12/CycK (O75909 1-300 partner limits assumed): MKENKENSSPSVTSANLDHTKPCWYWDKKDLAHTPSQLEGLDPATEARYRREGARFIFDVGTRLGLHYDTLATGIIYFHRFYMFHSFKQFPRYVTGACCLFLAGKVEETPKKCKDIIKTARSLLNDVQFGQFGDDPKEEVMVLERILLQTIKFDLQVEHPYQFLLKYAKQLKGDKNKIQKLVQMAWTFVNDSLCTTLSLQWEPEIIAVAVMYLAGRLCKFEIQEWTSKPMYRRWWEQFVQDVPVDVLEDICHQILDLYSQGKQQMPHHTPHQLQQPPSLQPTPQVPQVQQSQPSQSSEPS
T1 sequence (Q9NYV4 whole entry): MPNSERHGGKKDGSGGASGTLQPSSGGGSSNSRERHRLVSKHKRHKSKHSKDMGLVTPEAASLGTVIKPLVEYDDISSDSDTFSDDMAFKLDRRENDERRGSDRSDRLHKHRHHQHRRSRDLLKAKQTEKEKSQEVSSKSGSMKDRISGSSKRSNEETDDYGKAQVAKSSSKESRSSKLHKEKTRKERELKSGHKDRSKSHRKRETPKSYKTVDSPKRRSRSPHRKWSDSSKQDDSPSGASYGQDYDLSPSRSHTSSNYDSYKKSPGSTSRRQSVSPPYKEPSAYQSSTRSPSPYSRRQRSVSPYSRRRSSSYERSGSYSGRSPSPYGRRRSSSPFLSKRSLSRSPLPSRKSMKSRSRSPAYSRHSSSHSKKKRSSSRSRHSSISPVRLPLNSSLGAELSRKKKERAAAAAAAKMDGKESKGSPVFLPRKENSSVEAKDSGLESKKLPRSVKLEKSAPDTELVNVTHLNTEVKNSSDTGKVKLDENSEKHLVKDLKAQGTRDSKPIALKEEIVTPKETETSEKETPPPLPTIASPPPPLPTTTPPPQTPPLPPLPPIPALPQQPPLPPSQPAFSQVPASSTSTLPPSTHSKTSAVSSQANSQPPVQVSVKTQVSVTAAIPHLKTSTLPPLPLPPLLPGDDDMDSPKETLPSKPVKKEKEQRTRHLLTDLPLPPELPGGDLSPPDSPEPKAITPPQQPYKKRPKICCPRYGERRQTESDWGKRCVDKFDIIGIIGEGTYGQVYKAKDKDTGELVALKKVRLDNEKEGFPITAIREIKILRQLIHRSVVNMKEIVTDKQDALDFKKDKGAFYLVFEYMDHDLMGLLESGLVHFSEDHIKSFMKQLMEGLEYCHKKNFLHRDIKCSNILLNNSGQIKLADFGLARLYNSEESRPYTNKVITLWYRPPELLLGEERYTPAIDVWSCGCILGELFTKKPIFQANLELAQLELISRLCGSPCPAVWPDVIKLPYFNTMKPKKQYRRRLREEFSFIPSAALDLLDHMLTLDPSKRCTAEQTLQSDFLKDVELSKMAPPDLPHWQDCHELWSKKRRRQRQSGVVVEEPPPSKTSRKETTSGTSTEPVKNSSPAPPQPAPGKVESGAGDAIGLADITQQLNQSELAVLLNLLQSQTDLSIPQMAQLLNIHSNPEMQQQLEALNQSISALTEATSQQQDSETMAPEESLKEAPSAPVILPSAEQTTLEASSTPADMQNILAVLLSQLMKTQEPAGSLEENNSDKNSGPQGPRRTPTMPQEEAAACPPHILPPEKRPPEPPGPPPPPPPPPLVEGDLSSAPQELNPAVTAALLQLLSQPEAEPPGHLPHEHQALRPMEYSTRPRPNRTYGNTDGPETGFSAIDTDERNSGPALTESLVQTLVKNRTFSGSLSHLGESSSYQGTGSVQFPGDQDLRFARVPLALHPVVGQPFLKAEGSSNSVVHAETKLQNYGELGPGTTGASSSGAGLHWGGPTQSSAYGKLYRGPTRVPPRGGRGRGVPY
T1 sequence (O75909 whole entry partner): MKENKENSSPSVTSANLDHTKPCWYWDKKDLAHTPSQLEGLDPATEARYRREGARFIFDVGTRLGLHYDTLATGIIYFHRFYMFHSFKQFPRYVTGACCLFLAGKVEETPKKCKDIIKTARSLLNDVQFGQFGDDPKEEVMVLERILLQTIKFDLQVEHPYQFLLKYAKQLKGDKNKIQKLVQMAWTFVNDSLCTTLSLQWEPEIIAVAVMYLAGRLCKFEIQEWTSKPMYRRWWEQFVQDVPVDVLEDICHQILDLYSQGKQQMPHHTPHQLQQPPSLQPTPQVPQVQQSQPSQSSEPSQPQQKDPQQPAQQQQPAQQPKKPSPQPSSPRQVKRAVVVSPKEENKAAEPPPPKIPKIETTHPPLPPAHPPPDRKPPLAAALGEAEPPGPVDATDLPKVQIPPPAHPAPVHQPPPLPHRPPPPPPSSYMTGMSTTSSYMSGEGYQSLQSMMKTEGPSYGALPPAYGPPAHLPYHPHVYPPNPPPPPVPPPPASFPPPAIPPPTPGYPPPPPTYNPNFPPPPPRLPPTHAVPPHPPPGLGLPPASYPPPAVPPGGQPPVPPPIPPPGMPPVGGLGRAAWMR

Row | Structure (SMILES) | IC50 (CDK12/CycK) [µM] | IC50 [1] [µM] | DC50 [2] [µM]
1 | Brc1cnn2c(NCc3nc4ccncc4[nH]3)nc(N3CCOCC3)nc12 [Example 22, 8-bromo-N-[(3H-imidazo[4,5-c]pyridin-2-yl)methyl]-2-(morpholin-4-yl)pyrazolo[1,5-a][1,3,5]triazin-4-amine] | 4 | – | 0.118
2 | Cc1cc2nc(CNc3nc(N4CCN(C)CC4)nc4c(C5CC5)cnn34)[nH]c2cc1C [Example 312, 8-cyclopropyl-N-[(5,6-dimethyl-1H-benzimidazol-2-yl)methyl]-2-(4-methylpiperazin-1-yl)pyrazolo[1,5-a][1,3,5]triazin-4-amine] | 10.2 | – | –
3 | c1ccc2[nH]c(CNc3nc(N4CCOCC4)nc4c(C5CCCC5)cnn34)nc2c1 [Example 244, N-[(1H-benzimidazol-2-yl)methyl]-8-cyclopentyl-2-(morpholin-4-yl)pyrazolo[1,5-a][1,3,5]triazin-4-amine] | > 20 | – | –
4 | Brc1cnn2c(NCc3nc4ccccc4[nH]3)nc(N3CC4CCNC4C3)nc12 (centres unmarked) [Example 271, 2-(2,3,3a,4,6,6a-hexahydro-1H-pyrrolo[2,3-c]pyrrol-5-yl)-N-(1H-benzimidazol-2-ylmethyl)-8-bromo-pyrazolo[1,5-a][1,3,5]triazin-4-amine] | > 20 | – | –
5 | CN1CCN(c2nc(NCc3nc4cc(F)c(Cl)cc4[nH]3)n3ncc(C4CC4)c3n2)CC1 [Example 309, N-[(6-chloro-5-fluoro-1H-benzimidazol-2-yl)methyl]-8-cyclopropyl-2-(4-methylpiperazin-1-yl)pyrazolo[1,5-a][1,3,5]triazin-4-amine] | > 20 | – | –
6 | CN(CC1CC1)c1nc(NCc2nc3ccccc3[nH]2)n2ncc(Br)c2n1 [Example 287, N^4-[(1H-benzimidazol-2-yl)methyl]-8-bromo-N^2-(cyclopropylmethyl)-N^2-methylpyrazolo[1,5-a][1,3,5]triazine-2,4-diamine] | 10.7 | – | –
7 | Clc1cc2nc(CNc3nc(N4CCOCC4)nc4c(C5CC5)cnn34)[nH]c2cc1Cl [Example 301, 8-cyclopropyl-N-[(5,6-dichloro-1H-benzimidazol-2-yl)methyl]-2-(morpholin-4-yl)pyrazolo[1,5-a][1,3,5]triazin-4-amine] | 1.18 | – | –
8 | Fc1ccc2[nH]c(CNc3nc(N4CC5CCC(C4)N5)nc4c(C(F)(F)F)cnn34)nc2c1F [Example 310, 2-(3,8-diazabicyclo[3.2.1]octan-3-yl)-N-[(4,5-difluoro-1H-benzimidazol-2-yl)methyl]-8-(trifluoromethyl)pyrazolo[1,5-a][1,3,5]triazin-4-amine] | 1.29 | – | –
9 | Brc1cnn2c(NCc3nc4ccccc4[nH]3)nc(N3C[C@H]4CN[C@H]4C3)nc12.O=C(O)C(F)(F)F [Example 255, trifluoroacetic acid-N-[(1H-benzimidazol-2-yl)methyl]-8-bromo-2-[(1R,5R)-3,6-diazabicyclo[3.2.0]heptan-3-yl]pyrazolo[1,5-a][1,3,5]triazin-4-amine (1/1)] | > 20 | – | –
10 | CN1CCN(c2nc(NCc3nc4ccccc4[nH]3)n3ncc(C4CC4)c3n2)CC1 [Example 246, N-[(1H-benzimidazol-2-yl)methyl]-8-cyclopropyl-2-(4-methylpiperazin-1-yl)pyrazolo[1,5-a][1,3,5]triazin-4-amine] | > 12.9 | – | –
11 | Fc1ccc2[nH]c(CNc3nc(N4CCOCC4)nc4c(CC(F)(F)F)cnn34)nc2c1F [Example 268, N-[(4,5-difluoro-1H-benzimidazol-2-yl)methyl]-2-(morpholin-4-yl)-8-(2,2,2-trifluoroethyl)pyrazolo[1,5-a][1,3,5]triazin-4-amine] | 2.13 | – | –
12 | Fc1ccc2[nH]c(CNc3nc(N4CCOCC4)nc4c(C5CC5(F)F)cnn34)nc2c1F (centres unmarked) [Example 278, N-[(4,5-difluoro-1H-benzimidazol-2-yl)methyl]-8-(2,2-difluorocyclopropyl)-2-(morpholin-4-yl)pyrazolo[1,5-a][1,3,5]triazin-4-amine] | 2.44 | – | –

Next, values leading:

Row | IC50 (CDK12/CycK) [µM] | IC50 [1] [µM] | DC50 [2] [µM] | Structure (SMILES)
13 | 4.39 | 0.0345 | 0.00933 | Brc1cnn2c(NCc3nnc(-c4ccccc4)[nH]3)nc(N3CCOCC3)nc12 [Example 24, 8-bromo-2-(morpholin-4-yl)-N-[(5-phenyl-4H-1,2,4-triazol-3-yl)methyl]pyrazolo[1,5-a][1,3,5]triazin-4-amine]
14 | 1.56 | – | < 0.001 | Brc1cnn2c(NCc3ncc(-c4ccccc4)[nH]3)nc(N3CCOCC3)nc12 [Example 23, 8-bromo-2-(morpholin-4-yl)-N-[(5-phenyl-1H-imidazol-2-yl)methyl]pyrazolo[1,5-a][1,3,5]triazin-4-amine]
15 | 0.731 | – | < 0.001 | Fc1ccc2[nH]c(CNc3nc(N4CCOCC4)nc4c(Br)cnn34)nc2c1F [Example 25, 8-bromo-N-[(4,5-difluoro-1H-benzimidazol-2-yl)methyl]-2-(morpholin-4-yl)pyrazolo[1,5-a][1,3,5]triazin-4-amine]
16 | > 16.7 | – | – | FC(F)(F)Cc1cnn2c(NCc3nc4ccccc4[nH]3)nc(N3CCOCC3)nc12.O=CO [Example 265, formic acid-N-[(1H-benzimidazol-2-yl)methyl]-2-(morpholin-4-yl)-8-(2,2,2-trifluoroethyl)pyrazolo[1,5-a][1,3,5]triazin-4-amine (1/1)]
17 | 10.7 | – | – | Brc1cnn2c(NCc3nc4ccccc4[nH]3)nc(N3CCC4(CCN4)CC3)nc12 [Example 291, N-[(1H-benzimidazol-2-yl)methyl]-8-bromo-2-(1,7-diazaspiro[3.5]nonan-7-yl)pyrazolo[1,5-a][1,3,5]triazin-4-amine]
18 | 9.2 | – | – | C[C@@H]1CN(c2nc(NCc3nc4ccccc4[nH]3)n3ncc(C4CC4)c3n2)C[C@H](C)N1 [Example 248, N-[(1H-benzimidazol-2-yl)methyl]-8-cyclopropyl-2-[(3R,5S)-3,5-dimethylpiperazin-1-yl]pyrazolo[1,5-a][1,3,5]triazin-4-amine]
19 | 6.44 | – | – | CC(C)CNc1nc(NCc2nc3ccccc3[nH]2)n2ncc(Br)c2n1 [Example 285, N^4-[(1H-benzimidazol-2-yl)methyl]-8-bromo-N^2-(2-methylpropyl)pyrazolo[1,5-a][1,3,5]triazine-2,4-diamine]
20 | > 18.7 | – | – | CC1CN(C)CCN1c1nc(NCc2nc3ccccc3[nH]2)n2ncc(Br)c2n1 (single isomer, unassigned; enantiomer 2) [Example 261, N-(1H-benzimidazol-2-ylmethyl)-8-bromo-2-[(2R or S)-2,4-dimethylpiperazin-1-yl]pyrazolo[1,5-a][1,3,5]triazin-4-amine (Enantiomer 2)]
21 | 12.2 | – | < 0.001 | CC1CN(C)CCN1c1nc(NCc2nc3ccccc3[nH]2)n2ncc(Br)c2n1 (single isomer, unassigned; enantiomer 1) [Example 260, N-(1H-benzimidazol-2-ylmethyl)-8-bromo-2-[(2R or S)-2,4-dimethylpiperazin-1-yl]pyrazolo[1,5-a][1,3,5]triazin-4-amine (Enantiomer 1)]
22 | 4.69 | – | – | NC12CC1CN(c1nc(NCc3nc4ccccc4[nH]3)n3ncc(Br)c3n1)C2 (centres unmarked) [Example 258, 2-(1-amino-3-azabicyclo[3.1.0]hexan-3-yl)-N-(1H-benzimidazol-2-ylmethyl)-8-bromo-pyrazolo[1,5-a][1,3,5]triazin-4-amine]
23 | > 20 | – | – | Brc1cnn2c(NCc3nc4ccccc4[nH]3)nc(N3C[C@@H]4CN[C@@H]4C3)nc12.O=C(O)C(F)(F)F [Example 267, trifluoroacetic acid-N-[(1H-benzimidazol-2-yl)methyl]-8-bromo-2-[(1S,5S)-3,6-diazabicyclo[3.2.0]heptan-3-yl]pyrazolo[1,5-a][1,3,5]triazin-4-amine (1/1)]
